Experimental findings from US20040127492A1 (Pharmacia Corporation, priority 2002, published 2004) are described below.

Where only a bound is given, the exact number is not on record here.

Sequence of MAPKAPK2 (MK-2) (P49137 whole entry, species assumed): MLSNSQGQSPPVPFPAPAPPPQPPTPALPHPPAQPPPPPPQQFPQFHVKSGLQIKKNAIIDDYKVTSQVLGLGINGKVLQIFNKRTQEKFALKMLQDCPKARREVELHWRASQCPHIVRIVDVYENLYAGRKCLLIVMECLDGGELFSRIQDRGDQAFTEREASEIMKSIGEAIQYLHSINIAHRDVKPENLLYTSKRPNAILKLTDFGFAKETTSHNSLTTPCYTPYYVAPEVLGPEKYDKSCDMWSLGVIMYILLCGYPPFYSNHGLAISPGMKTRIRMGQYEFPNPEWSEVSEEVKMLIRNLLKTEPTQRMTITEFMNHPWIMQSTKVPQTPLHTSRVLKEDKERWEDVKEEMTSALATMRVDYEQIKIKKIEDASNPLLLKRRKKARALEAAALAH

The target in one assay is MAPKAPK2 (MK-2) (Homo sapiens, UniProt P49137). The experiment in a line: Determination of MK-2 IC50 (HSP-peptide phosphorylation, anion exchange resin capture assay). It is filed as biochemical. As to conditions: Table 1, phenoxypyrazole MK-2 inhibitors; read-out: MK-2 Avg, IC50. As for the experimental part: Determination of MK-2 IC50:
Recombinant MAPKAPK2 was phosphorylated at a concentration of 42-78 μM by incubation with 0.23 μM of active p38α in 50 mM HEPES, 0.1 mM EDTA, 10 mM magnesium acetate, and 0.25 mM ATP, pH 7.5 for one hour at 30° C.
The phosphorylation of HSP-peptide ([…]) by MAPKAPK2 was measured using an anion exchange resin capture assay method. The reaction was carried out in 50 mM β-glycerolphosphate, 0.04% BSA, 10 mM magnesium acetate, 2% DMSO and 0.8 mM dithiotheritol, pH 7.5 in the presence of the HSP-peptide with 0.2 μCi [γ^33P]ATP and 0.03 mM ATP. The reaction was initiated by the addition of 15 nM MAPKAPK2 and was allowed to incubate at 30° C. for 30 min. The reaction was terminated and [γ^33P]ATP was removed from solution by the addition of 150 μl of AG 1×8 ion exchange resin in 900 mM sodium formate pH 3.0. A 50 μl aliquot of head volume was removed from the quenched reaction mixture and added to a 96-well plate, 150 μl of Microscint-40 (Packard) was added and the amount of phosphorylated-peptide was determined. Allow the Microscint to sit in the plates for 60 minutes prior to counting.
Compounds are evaluated as potential inhibitors of the MK-2 kinase by measuring their effects on MK-2 phosphorylation of the peptide substrate. Compounds may be screened initially at two concentrations prior to determination of IC50 values. Screening results are expressed as percent inhibition at the concentrations of compound tested. For IC50 value determinations, Compounds are tested at six concentrations in ten-fold serial dilutions with each concentration tested in triplicate. Results are expressed as IC50 values in micromolar. The assay is performed at a final concentration of 2% DMSO.
The IC50 is the concentration at which inhibition is half-maximal. As to `O=C1NCCCn2nc3c(c21)CCc1cc(O)ccc1-3` [Example 18], the IC50 was determined as 17 µM.

On to `CC(C)Cc1cc2c(cc1O)CCc1c-2nn(CCCN)c1C(=O)O` [Example 25], for which the IC50 came to 20.8 µM.

Turning to `NCCCn1nc2c(c1C(=O)O)CCc1cc(O)c(Cc3ccccc3)cc1-2` [Example 29], the IC50 amounted to 29.6 µM.

On to `CCC(C)Nc1cc2c(cc1O)CCc1c-2nn(CCCN)c1C(=O)O` (stereo not drawn) [Example 35], for which the IC50 came out at 45.9 µM.

As for `NCCCn1nc2c(c1C(=O)O)CCc1c-2cc(-c2cccc([N+](=O)[O-])c2)c(O)c1Cl` [Example 43], the IC50 came to 74.3 µM.

`COC(=O)c1[nH]nc2c1CCc1cc(O)c(S(=O)(=O)N(C)C)cc1-2` [Example 47]: the IC50 came out at 92.8 µM.

On to `COc1cc2c(cc1-c1cccc(Cl)c1)-c1nn(CCCNC(=O)OC(C)(C)C)c(C(=O)O)c1CC2` [Example 50], for which the concentration for half-maximal inhibition (IC50) was 104 µM.

Turning to `Nc1cccc(-c2cc3c(cc2O)CCc2c-3nn3c2C(=O)NCCC3)c1` [Example 51], the IC50 is 105 µM.

`COc1cc2c(cc1Cc1ccccc1)-c1nn(CCCNC(=O)OC(C)(C)C)c(C(=O)O)c1CC2` [Example 63]: the IC50 worked out at 154 µM.

As to `O=C(O)c1[nH]nc2c1CCc1cc(O)c(Br)cc1-2` [Example 66], the concentration for half-maximal inhibition (IC50) came out at 163 µM.

As for `CCC(C)Nc1cc2c(cc1OC)CCc1c-2nn(CCCN)c1C(=O)O` (stereo not drawn) [Example 74], the IC50 turned out to be 196 µM.

For `COC(=O)c1[nH]nc2c1C(C)Cc1cc(OC)ccc1-2` (stereo not drawn) [Example 100], the IC50 is > 200 µM.

Take `COC(=O)c1c2c(nn1CCCNC(=O)OC(C)(C)C)-c1cc(-c3cccc(Cl)c3)c(OC)cc1CC2` [Example 131]: the IC50 is > 200 µM.

Still in this assay, the particulars now being: Table 2, pyrazolylpyrazole MK-2 inhibitors; read-out: MK-2 Avg. IC50.
`CSc1n[nH]c2c1-c1n[nH]c(C(N)=O)c1CC2` [Example 18]: the IC50 turned out to be 30.3 µM.

Regarding `NC(=O)c1[nH]nc2c1CCc1[nH]nc(SCc3ccccc3)c1-2` [Example 25], the IC50 turned out to be 80.7 µM.

As to `NCCCn1nc(C(N)=O)c2c1-c1cn[nH]c1CC2` [Example 28], the IC50 was determined as 104 µM.

For the molecule `NC(=O)CCn1nc(C(N)=O)c2c1-c1cn[nH]c1CC2` [Example 56], the IC50 is ≥ 200 µM.

For the molecule `NC(=O)Cn1nc(C(N)=O)c2c1-c1cn[nH]c1CC2` [Example 57], the IC50 was ≥ 200 µM.

In the case of `CS(=O)(=O)c1n[nH]c2c1-c1n[nH]c(C(N)=O)c1CC2` [Example 58], the IC50 is ≥ 200 µM.

Regarding `O=C(O)c1[nH]nc2c1CCc1[nH]nc(SCc3ccccc3)c1-2` [Example 60], the IC50 was ≥ 200 µM.

As for `CCOC(=O)c1[nH]nc2c1CCc1[nH]nc(SCc3ccccc3)c1-2` [Example 61], the IC50 was ≥ 200 µM.

As for `C[S+]([O-])c1n[nH]c2c1-c1n[nH]c(C(=O)O)c1CC2` (stereo not drawn) [Example 62], the IC50 is ≥ 200 µM.

As to `CCOC(=O)c1[nH]nc2c1CCc1[nH]nc([S+](C)[O-])c1-2` (stereo not drawn) [Example 63], the IC50 was ≥ 200 µM.

With `CSc1n[nH]c2c1-c1n[nH]c(C(=O)O)c1CC2` [Example 64], the IC50 was ≥ 200 µM.

For `CCOC(=O)c1[nH]nc2c1CCc1[nH]nc(SC)c1-2` [Example 65], the IC50 was ≥ 200 µM.

The same assay, now with this note: Table 4, pyrimidylpyrazole MK-2 inhibitors; read-out: MK-2 Avg. IC50.
On to `O=C1NCCCn2nc3c(c21)CCc1cnc(-c2cnc4ccccc4c2)nc1-3` [Example 4], for which the IC50 was found to be 1.47 µM.

For the molecule `O=C1NCCCn2nc3c(c21)CCc1cnc(-c2ccc4c(c2)OCO4)nc1-3` [Example 7], the concentration for half-maximal inhibition (IC50) came to 3.14 µM.

Turning to `COc1ccc(-c2ncc3c(n2)-c2nn4c(c2CC3)C(=O)NCCC4)cc1` [Example 8], the IC50 came out at 4.52 µM.

Regarding `O=C1NCCCn2nc3c(c21)CCc1cnc(-c2ccncc2)nc1-3` [Example 9], the IC50 worked out at 8.62 µM.

With `O=C(O)c1c2c(nn1CCCNC(c1ccccc1)(c1ccccc1)c1ccccc1)-c1nc(-c3ccccc3)ncc1CC2` [Example 10], the IC50 is 52.2 µM.

`O=C1NCCCn2nc3c(c21)CCc1cnc(-c2ccccc2)nc1-3` [Example 11]: the IC50 stood at 81.4 µM.

Take `COC(=O)c1c2c(nn1CCCN)-c1nc(-c3ccncc3)ncc1CC2` [Example 12]: the IC50 was determined as 142 µM.

The assay is the same for the next values; noted with them: Table 5, other cyclic pyrazole MK-2 inhibiting compounds; read-out: MK-2 Avg. IC50.
In the case of `O=C1NCCn2nc3c(c21)CCc1cnc(/C=C/c2ccccc2)cc1-3` [Example 2], the IC50 amounted to 0.147 µM.

Take `O=C1NCCn2nc3c(c21)CCc1cnc(/C=C/c2ccc(O)cc2)cc1-3` [Example 3]: the concentration for half-maximal inhibition (IC50) is 0.164 µM.

Staying with this assay, now noted: read-out: MK-2 Avg. IC50.
With `CCCn1nc2c(c1C(=O)O)CCc1cnc(-c3cnc4ccccc4c3)cc1-2` [Example 20], the concentration for half-maximal inhibition (IC50) worked out at 0.0914 µM.

As to `COc1cccc(-c2cc3c(cn2)CCc2c-3nn3c2C(=O)NCC3)c1` [Example 45], the IC50 worked out at 0.322 µM.

As for `O=C1NCCCn2nc3c(c21)CCc1cnc(-c2cccc([N+](=O)[O-])c2)cc1-3` [Example 50], the IC50 stood at 0.453 µM.

For `COc1ccc(-c2cc3c(cn2)CCc2c-3nn3c2C(=O)NCC3)cc1` [Example 62], the IC50 was determined as 0.587 µM.

For the molecule `O=C(O)c1c2c(nn1CCCNCc1cnc[nH]1)-c1ccncc1CC2` [Example 160], the IC50 stood at 10.1 µM.

Regarding `O=C(O)c1c2c(nn1CCCNCc1cccc(Cl)c1)-c1ccncc1CC2` [Example 161], the IC50 turned out to be 10.3 µM.

Regarding `O=C(NCCCn1nc2c(c1C(=O)O)CCc1cnccc1-2)c1cccnc1` [Example 162], the IC50 was determined as 10.4 µM.

As to `NC(=O)c1[nH]nc2c1CCc1cnccc1-2` [Example 163], the IC50 was 10.4 µM.

In the case of `O=C(O)c1c2c(nn1CCCNC1CCCC1)-c1ccncc1CC2` [Example 164], the IC50 turned out to be 10.4 µM.

Regarding `O=C(O)c1c2c(nn1CCCNCCc1c[nH]c3ccccc13)-c1ccncc1CC2` [Example 165], the IC50 stood at 10.7 µM.

Turning to `NCCCC1CNC(=O)c2c3c(nn21)-c1ccncc1CC3` (stereo not drawn) [Example 166], the IC50 came out at 11 µM.

As to `O=C1NC(C(O)CO)Cn2nc3c(c21)CCc1cnccc1-3` (stereo not drawn) [Example 167], the IC50 is 11.8 µM.

For the molecule `O=C1NCCn2nc3c(c21)CCc1cnc(N2CCOCC2)cc1-3` [Example 168], the IC50 worked out at 11.9 µM.

As to `CCOC(=O)c1c2c(nn1CCN)-c1ccncc1CC2` [Example 169], the IC50 stood at 12.3 µM.

Regarding `C=CCn1nc2c(c1C(=O)O)CCc1cnccc1-2` [Example 170], the IC50 is 12.6 µM.

With `O=C(O)c1c2c(nn1CC(O)CNC1Cc3ccccc3C1)-c1ccncc1CC2` (stereo not drawn) [Example 172], the IC50 is 14 µM.

For `O=C(O)c1c2c(nn1CCO)-c1ccncc1CC2` [Example 173], the IC50 stood at 14.3 µM.

With `O=C(O)c1c2c(nn1CCCNCCN1CCCC1)-c1ccncc1CC2` [Example 174], the IC50 was determined as 14.6 µM.

In the case of `O=C1NCCn2nc3c(c21)CCc1cnc(N2CCc4ccccc4C2)cc1-3` [Example 175], the IC50 amounted to 15 µM.

On to `O=C(NCCCn1nc2c(c1C(=O)O)CCc1cnccc1-2)NCc1ccccc1` [Example 176], for which the IC50 was 15.4 µM.

`CN(C)CCCn1nc2c(c1C(=O)O)CCc1cnccc1-2` [Example 177]: the IC50 is 15.5 µM.

On to `NCCCn1nc2c(c1C(=O)O)CCc1c-2ccnc1Cl` [Example 179], for which the IC50 was determined as 16.5 µM.

As for `COC(=O)C1Cn2nc3c(c2C(=O)N1)CCc1cnccc1-3` (stereo not drawn) [Example 180], the 50% inhibitory concentration (IC50) amounted to 16.5 µM.

`O=C(CO)NCCn1nc2c(c1C(=O)O)CCc1cnccc1-2` [Example 181]: the concentration for half-maximal inhibition (IC50) is 17.4 µM.

For `CC(C)NCCn1nc2c(c1C(=O)O)CCc1cnccc1-2` [Example 182], the IC50 worked out at 17.7 µM.

Regarding `N#CCCCn1nc2c(c1C(=O)O)CCc1cnccc1-2` [Example 183], the half-inhibitory concentration (IC50) is 17.9 µM.

Take `N#Cc1cccc(NC(=O)NCCCn2nc3c(c2C(=O)O)CCc2cnccc2-3)c1` [Example 184]: the IC50 is 17.9 µM.

On to `NCC1Cn2nc3c(c2C(=O)O1)CCc1cnccc1-3` (stereo not drawn) [Example 185], for which the IC50 is 19.4 µM.

In the case of `Cc1nccc2c1CCc1c-2nn2c1C(=O)NCCC2` [Example 186], the IC50 was 20 µM.

On to `CCCn1nc2c(c1C(=O)O)CCc1cnccc1-2` [Example 187], for which the IC50 was found to be 20.1 µM.

As for `O=C(O)c1c2c(nn1CCCBr)-c1ccncc1CC2` [Example 188], the IC50 was determined as 21.5 µM.

For `O=C1NCCn2nc3c(c21)CCc1cnc(N2CCCC2)cc1-3` [Example 189], the IC50 was found to be 21.6 µM.

On to `CC(C)NCCCn1nc2c(c1C(=O)O)CCc1cnccc1-2` [Example 190], for which the IC50 was found to be 21.9 µM.

As to `NC(CCn1nc2c(c1C(=O)O)CCc1cnccc1-2)C(=O)O` (stereo not drawn) [Example 191], the IC50 amounted to 25 µM.

`NC(=O)NCCCn1nc2c(c1C(=O)O)CCc1cnccc1-2` [Example 192]: the IC50 is 25.3 µM.

For `O=C1NC(CNCc2ccc(Cl)cc2)Cn2nc3c(c21)CCc1cnccc1-3` (stereo not drawn) [Example 193], the IC50 is 27.3 µM.

In the case of `O=C1NCCn2nc3c(c21)CCc1c-3ccnc1Cl` [Example 194], the IC50 was found to be 27.7 µM.

`NC(=O)C1Cn2nc3c(c2C(=O)N1)CCc1cnc(-c2cnc4ccccc4c2)cc1-3` (stereo not drawn) [Example 195]: the IC50 was determined as 27.9 µM.
